In US6645495B1, “Compositions of saponin adjuvants and excipients” (Antigenics, Inc., priority 1997, dated 2003):

How the values were obtained:
sheep red blood cells = conditions: cited from earlier work; for concentration causing hemolysis of sheep red blood cells: substantially pure saponin
[1] = in words; cited from earlier work
[2] = cited from earlier work
C57BL/6 mice = conditions: antigen ovalbumin, cited from earlier work
[3] = earlier clinical trials: pain after injection of QS-21 in simple buffer; assay type: in vivo, humans; conditions: QS-21 in saline or PBS, some individuals
Excerpt: This pain, described by most individuals as a burning pain, may be a secondary reaction correlated with the lytic effect of the QS-21 adjuvant. Patient pain is likewise an objectionable property for a composition.

[4] = test system: New Zealand white rabbits; conditions: cited from earlier work
[5] = aqueous shelf life of QS-21 solution at 4° C. (t90); assay type: physicochemical
Procedure: Product stability is another concern for QS-21 containing compositions. The shelf life of a vaccine product is typically defined by the extent of time to reach a defined and acceptable low level of degradation (such as, the time to 10% degradation, also known as t90). Most commercial vaccine products have a shelf life of at least 18 to 24 months when stored in the refrigerator at 4° C. Adjuvants, which are essential components of vaccines, therefore must also have equally long shelf lives. However, the shelf life of a 50 μg/ml solution of QS-21 at pH 7.0 at 4° C. is reached in about 3 months. The reason for the short shelf life is because the ester bond of QS-21 is increasingly labile at increasing pH and because monomers of QS-21, as opposed to micelles, are subject to hydrolysis. The need to stabilize compositions of QS-21 adjuvant is significant.
This is representative of a typical clinical vaccine formulation containing QS-21 adjuvant (which consists of QS-21 at a concentration of 50-200 μg/ml in a-physiological pH buffer (pH 7.0-7.5)). […] Some improvement in stability, however, can be achieved by an increased concentration of the QS-21 product. […] But a concentrated QS-21 solution is not necessarily a practical method of administering a low dose of adjuvant. For example, administration of 25 μg from a 500 μg/ml solution would require the syringe withdrawal of 0.05 ml of dose. Additionally, some improved stability can be achieved by the use of a lower pH, i.e., at pH 6.0. However, a pH substantially lower than the physiological pH range may not be tolerated well or be compatible with the antigen.

Balb/c mice = assay: adjuvant potency: anti-OVA IgG2a response of immunized Balb/c mice (EIA); assay type: in vivo
Procedure: FIGS. 1A and 1B show the effect of Polysorbate 40, Polysorbate 60, Polysorbate 80, and methyl-β-cyclodextrin on the immune response of Balb/c mice to OVA plus various doses of QS-21. Female mice (10/group, 8-10 weeks of age at the first immunization) were immunized subcutaneously with 5 μg of OVA and the indicated dose of QS-21 in either PBS alone or in 2 mg/ml excipient in PBS. A booster immunization was given by the same route at week 2. Sera was collected at week 4 for EIA analysis of the anti-OVA response. Mice were analyzed for OVA-specific IgG2a by a standard EIA analysis.

QS-18
concentration causing hemolysis of sheep red blood cells (sheep red blood cells): ≥ 25000 ng/mL
immune adjuvant activity [1]: having immune adjuvant activity
critical micellar concentration in phosphate buffered saline [2]: ~0.02 % (w/v)
critical micellar concentration in water [2]: approximately 0.04 % (w/v)

QS-21
concentration at which hemolysis occurs (sheep red blood cells; simple buffer such as saline or PBS (Kensil 1991)): 5000 to 7000 ng/mL
concentration causing hemolysis of sheep red blood cells (sheep red blood cells): ≥ 25000 ng/mL
threshold dose for antibody (C57BL/6 mice; in PBS (Kensil 1993)): 2.5 µg
threshold dose for CTL (C57BL/6 mice; in PBS (Newman 1992)): 2.5 µg
pain after injection [3]: immediate, transient pain
creatine kinase (marker for muscle damage) ([4]; after injection with QS-21 in saline or PBS): increased
injection site histopathology ([4]; intramuscular QS-21/saline solutions, some animals (Kensil 1995)): mild to moderate fibroblast damage or necrosis
t90 (shelf life, time to 10% degradation) ([5]; 50 μg/ml QS-21, pH 6.0): 679 days
t90 (shelf life, time to 10% degradation) ([5]; 50 μg/ml QS-21, pH 7.0, 4° C.): 94 days
shelf life ([5]; 500 μg/ml QS-21, pH 7.0, 4° C.): 23.9 months
t90 (shelf life, time to 10% degradation) ([5]; 500 μg/ml QS-21, pH 7.0, 4° C.): 717 days
immune adjuvant activity [1]: having immune adjuvant activity
critical micellar concentration ([2]; in PBS (Soltysik 1995)): approximately 50 μg/ml
critical micellar concentration in phosphate buffered saline [2]: ~0.02 % (w/v)
critical micellar concentration in water [2]: approximately 0.03 % (w/v)
adjuvant activity (threshold dose) relative to PBS (Balb/c mice; 5 μg OVA s.c., boost week 2, sera week 4, 2 mg/ml Polysorbate 40, 60, 80 or methyl-β-cyclodextrin in PBS): active in all excipients within two fold of the threshold value determined in PBS
optimum adjuvant dose (Balb/c mice; QS-21 dose, OVA-specific IgG2a, Balb/c mice): ≥ 10 µg
maximum level of antibody response (Balb/c mice; at optimum adjuvant dose, excipients versus PBS): same maximum level of antibody response was reached

QS-17
concentration causing hemolysis of sheep red blood cells (sheep red blood cells): ≥ 25000 ng/mL
immune adjuvant activity [1]: having immune adjuvant activity
critical micellar concentration in phosphate buffered saline [2]: ~0.03 % (w/v)
critical micellar concentration in water [2]: approximately 0.06 % (w/v)
